Laboratory results reported in patent US6172085A (priority 1996, dated 2001).
Counter-ions that a name gives are not always drawn.

Tested on: sodium channel
Format: binding, Wistar rats
Conditions: rat cerebral cortex membrane, 5 nM [^3 H]batracotoxinin A20-α-benzoate, 1 μM tetrodotoxin, 100 μg/mL scorpion toxin, 37° C., 1 hour

SMILES	IC50 [nM]
COc1ccccc1CN1CCN(CC2(C)Cc3c(C)c(N)c(C)c(C)c3O2)CC1 (centres unmarked) [Example 31, 2,3-Dihydro-2-[[4-(2-methoxybenzyl)-1-piperazinyl]methyl]-2,4,6,7-tetramethyl-5-benzofuranamine trihydrochloride]	490
Cc1c(C)c2c(c(C)c1N)CC(C)(CN1CCC(CCCOC(c3ccccc3)c3ccccc3)CC1)O2 (centres unmarked) [Example 26, 2-[[4-[3-(Diphenylmethoxy)propyl]-1-piperidinyl]methyl]-2,3-dihydro-2,4,6,7-tetramethyl-5-benzofuranamine oxalate]	220
Cc1c(C)c2c(c(C)c1N)CC(C)(CN1CCC(CCCCc3ccccc3)CC1)O2 (centres unmarked) [Example 3, 2,3-Dihydro-2,4,6,7-tetramethyl-2-[[4-(4-phenylbutyl)-1-piperidinyl]methyl]-5-benzofuranamine]	260
CCNc1c(C)c(C)c2c(c1C)CC(C)(CN1CCC(c3ccccc3)CC1)O2 (centres unmarked) [Reference Example 8, N-ethyl-2,3-dihydro-2,4,6,7-tetramethyl-2-[(4-phenyl-1-piperidinyl)methyl]-5-benzofuranamine]	640
Cc1c(C)c2c(c(C)c1N)CC(C)(CN1CCC(COC(c3ccccc3)c3ccccc3)CC1)O2 (centres unmarked) [Example 24, 2-[[4-[(Diphenylmethoxy)methyl]-1-piperidinyl]methyl]-2,3-dihydro-2,4,6,7-tetramethyl-5-benzofuranamine oxalate]	410
Cc1c(C)c2c(c(C)c1N)CC(C)(CN1CCC(Cc3ccccc3)CC1)O2 (centres unmarked) [Example 5, 2-[(4-Benzyl-1-piperidinyl)methyl]-2,3-dihydro-2,4,6,7-tetramethyl-5-benzofuranamine]	520
Cc1c(C)c2c(c(C)c1N)CC(C)(CN1CCC(CCCc3ccccc3)CC1)O2 (centres unmarked) [Example 2, 2,3-Dihydro-2,4,6,7-tetramethyl-2-[[4-(3-phenylpropyl)-1-piperidinyl]methyl]-5-benzofuranamine]	280
Cc1c(C)c2c(c(C)c1N)CC(C)(CN1CCC(NC(c3ccccc3)c3ccccc3)CC1)O2 (centres unmarked) [Example 40, 1-[(5-Amino-2,3-dihydro-2,4,6,7-tetramethylbenzofuran-2-yl)methyl]-N-(diphenylmethyl)-4-piperidinamine trihydrochloride]	160
COc1cccc(CN2CCN(CC3(C)Cc4c(C)c(N)c(C)c(C)c4O3)CC2)c1 (centres unmarked) [Example 30, 2,3-Dihydro-2-[[4-(3-methoxybenzyl)-1-piperazinyl]methyl]-2,4,6,7-tetramethyl-5-benzofuranamine trihydrochloride]	390
Cc1c(C)c2c(c(C)c1N)CC(C)(CN1CCC(OC(c3ccc(F)cc3)c3ccc(F)cc3)CC1)O2 (centres unmarked) [Example 28, 2-[[4-[Bis(4-fluorophenyl)methoxy]-1-piperidinyl]methyl]-2,3-dihydro-2,4,6,7-tetramethyl-5-benzofuranamine oxalate]	220
Cc1c(C)c2c(c(C)c1N)CC(C)(CN1CCC(CCNC(c3ccccc3)c3ccccc3)CC1)O2 (centres unmarked) [Example 41, 1[(5-Amino-2,3-dihydro-2,4,6,7-tetramethylbenzofuran-2-yl)methyl]-N-(diphenylmethyl)-4-piperidineethylamine trihydrochloride]	140
Cc1c(C)c2c(c(C)c1N)CC(C)(CN1CCC(OC(c3ccccc3)c3ccccc3)CC1)O2 (centres unmarked) [Example 17, 2-[[4-(Diphenylmethoxy)-1-piperidinyl]methyl]-2,3-dihydro-2,4,6,7-tetramethyl-5-benzofuranamine oxalate]	320
Cc1ccc(CN2CCN(CC3(C)Cc4c(C)c(N)c(C)c(C)c4O3)CC2)cc1 (centres unmarked) [Example 34, 2,3-Dihydro-2,4,6,7-tetramethyl-2-[[4-(4-methylbenzyl)-1-piperazinyl]methyl]-5-benzofuranamine trihydrochloride]	420
Cc1c(C)c2c(c(C)c1N)CC(C)(CN1CCC(CCNCCC(c3ccccc3)c3ccccc3)CC1)O2 (centres unmarked) [Example 42, 1-[(5-Amino-2,3-dihydro-2,4,6,7-tetramethylbenzofuran-2-yl)methyl]-N-(3,3-diphenylpropyl)-4-piperidineethylamine trihydrochloride]	160
Cc1c(C)c2c(c(C)c1N)CC(C)(CN1CCN(Cc3ccccc3)CC1)O2 (centres unmarked) [Example 6, 2-[(4-Benzyl-1-piperazinyl)methyl]-2,3-dihydro-2,4,6,7-tetramethyl-5-benzofuranamine trihydrochloride]	790
Cc1c(C)c2c(c(C)c1N)CC(C)(CN1CCN(CCc3ccccc3)CC1)O2 (centres unmarked) [Example 27, 2,3-Dihydro-2,4,6,7-tetramethyl-2-[[4-(2-phenylethyl)-1-piperazinyl]methyl]-5-benzofuranamine]	200
Cc1c(C)c2c(c(C)c1N)CC(C)(CN1CCN(Cc3ccc(Cl)cc3)CC1)O2 (centres unmarked) [Example 33, 2-[[4-(4-Chlorobenzyl)-1-piperazinyl]methyl]-2,3-dihydro-2,4,6,7-tetramethyl-5-benzofuranamine trihydrochloride]	310
COc1ccc(CN2CCN(CC3(C)Cc4c(C)c(N)c(C)c(C)c4O3)CC2)cc1OC (centres unmarked) [Example 32, 2-[[4-(3,4-Dimethoxybenzyl)-1-piperazinyl]methyl]-2,3-dihydro-2,4,6,7-tetramethyl-5-benzofuranamine trihydrochloride]	250
COc1ccc(CN2CCN(CC3(C)Cc4c(C)c(N)c(C)c(C)c4O3)CC2)cc1 (centres unmarked) [Example 29, 2,3-Dihydro-2-[[4-(4-methoxybenzyl)-1-piperazinyl]methyl]-2,4,6,7-tetramethyl-5-benzofuranamine trihydrochloride]	210
Cc1c(C)c2c(c(C)c1N)CC(C)(CN1CCN(Cc3ccc4c(c3)OCO4)CC1)O2 (centres unmarked) [Example 4, 2,3-Dihydro-2,4,6,7-tetramethyl-2-[[4-[(3,4-methylenedioxyphenyl)methyl]-1-piperazinyl]methyl]-5-benzofuranamine trihydrochloride]	280
Cc1c(C)c2c(c(C)c1N)CC(C)(CN1CCC(CCc3ccccc3)CC1)O2 (centres unmarked) [Example 1, 2,3-Dihydro-2,4,6,7-tetramethyl-2-[[4-(2-phenylethyl)-1-piperidinyl]methyl]-5-benzofuranamine]	220
Cc1c(C)c2c(c(C)c1N)CC(C)(CN1CCC(CCOC(c3ccccc3)c3ccccc3)CC1)O2 (centres unmarked) [Example 25, 2-[[4-[2-(Diphenylmethoxy)ethyl]-1-piperidinyl]methyl]-2,3-dihydro-2,4,6,7-tetramethyl-5-benzofuranamine oxalate]	340
Cc1c(C)c2c(c(C)c1N)CC(C)(CN1CCc3ccccc3CC1)O2 (centres unmarked) [Reference Example 10, 2,3-Dihydro-2,4,6,7-tetramethyl-2-[(2,3,4,5-tetrahydro-1H-3-benzazepin-3-yl)methyl]-5-benzofuranamine dihydrochloride]	470
